ChEMBL document CHEMBL4507318, “Data for DCP probe BAY-985” (2021)

Columns and labels:
[1] = biological target: Receptor tyrosine-protein kinase erbB-2 (Homo sapiens) (UniProt P04626)
[2] = biological target: Cyclin-dependent kinase 13 (Homo sapiens) (UniProt Q14004)
[3] = biological target: TGF-beta receptor type-2 (Homo sapiens) (UniProt P37173)
[4] = biological target: Aurora kinase A (Homo sapiens) (UniProt O14965)
[5] = biological target: Serine/threonine-protein kinase DCLK3 (Homo sapiens) (UniProt Q9C098)
[6] = biological target: Cyclin-dependent kinase-like 1 (Homo sapiens) (UniProt Q00532)
[7] = biological target: Beta-2 adrenergic receptor (Homo sapiens) (UniProt P07550); settings: Compound concentration 10.0 uM
[8] = biological target: Serine/threonine-protein kinase Nek11 (Homo sapiens) (UniProt Q8NG66)
[9] = biological target: Ribosomal protein S6 kinase alpha-6 (Homo sapiens) (UniProt Q9UK32)
[10] = biological target: Dual specificity mitogen-activated protein kinase kinase 7 (Homo sapiens) (UniProt O14733)
[11] = biological target: Tyrosine-protein kinase ITK/TSK (Homo sapiens) (UniProt Q08881)
[12] = biological target: Cyclin-dependent kinase 18 (Homo sapiens) (UniProt Q07002)
[13] = biological target: Serine/threonine-protein kinase TAO3 (Homo sapiens) (UniProt Q9H2K8)
[14] = biological target: Rho-associated protein kinase 2 (Homo sapiens) (UniProt O75116)
[15] = biological target: Serine/threonine-protein kinase 25 (Homo sapiens) (UniProt O00506)
[16] = biological target: Dual specificity mitogen-activated protein kinase kinase 5 (Homo sapiens) (UniProt Q13163)
[17] = biological target: Cyclin-dependent kinase 4 (Homo sapiens) (UniProt P11802)
[18] = biological target: Homeodomain-interacting protein kinase 1 (Homo sapiens) (UniProt Q86Z02)
[19] = biological target: Mitogen-activated protein kinase 9 (Homo sapiens) (UniProt P45984)
[20] = biological target: 5-hydroxytryptamine receptor 1A (Homo sapiens) (UniProt P08908); settings: Compound concentration 10.0 uM
[21] = test system: Epidermal growth factor receptor (Homo sapiens), P00533 [UNDEFINED MUTATION]
[22] = test system: ALK tyrosine kinase receptor (Homo sapiens), Q9UM73 [L1196M]
[23] = biological target: Muscarinic acetylcholine receptor M2 (Homo sapiens) (UniProt P08172); settings: Compound concentration 10.0 uM
[24] = biological target: TGF-beta receptor type-1 (Homo sapiens) (UniProt P36897)
[25] = biological target: Calcium-dependent protein kinase 1 (Plasmodium falciparum) (UniProt P62344)
[26] = biological target: Wee1-like protein kinase 2 (Homo sapiens) (UniProt P0C1S8)
[27] = biological target: Serine/threonine-protein kinase Nek10 (Homo sapiens) (UniProt Q6ZWH5)
[28] = biological target: Ribosomal protein S6 kinase alpha-5 (Homo sapiens) (UniProt O75582)
[29] = biological target: Calcium/calmodulin-dependent protein kinase kinase 1 (Homo sapiens) (UniProt Q8N5S9)
[30] = biological target: NUAK family SNF1-like kinase 1 (Homo sapiens) (UniProt O60285)
[31] = test system: Receptor-type tyrosine-protein kinase FLT3 (Homo sapiens), P36888 [D835Y]
[32] = biological target: Myosin light chain kinase, smooth muscle (Homo sapiens) (UniProt Q15746)
[33] = biological target: Activin receptor type-1 (Homo sapiens) (UniProt Q04771)
[34] = biological target: Serine/threonine-protein kinase Sgk2 (Homo sapiens) (UniProt Q9HBY8)
[35] = biological target: D(2) dopamine receptor (Homo sapiens) (UniProt P14416); settings: Compound concentration 10.0 uM
[36] = biological target: Serine/threonine-protein kinase Nek1 (Homo sapiens) (UniProt Q96PY6)
[37] = biological target: Myosin light chain kinase family member 4 (Homo sapiens) (UniProt Q86YV6)
[38] = biological target: Mitogen-activated protein kinase kinase kinase kinase 1 (Homo sapiens) (UniProt Q92918)
[39] = biological target: Serine/threonine-protein kinase D3 (Homo sapiens) (UniProt O94806)
[40] = biological target: Serine/threonine-protein kinase 38 (Homo sapiens) (UniProt Q15208)
[41] = biological target: Calcium/calmodulin-dependent protein kinase type II subunit beta (Homo sapiens) (UniProt Q13554)
[42] = biological target: Serine/threonine-protein kinase 35 (Homo sapiens) (UniProt Q8TDR2)
[43] = biological target: Ephrin type-B receptor 2 (Homo sapiens) (UniProt P29323)
[44] = biological target: Dual specificity mitogen-activated protein kinase kinase 2 (Homo sapiens) (UniProt P36507)
[45] = biological target: Tyrosine-protein kinase SYK (Homo sapiens) (UniProt P43405)
[46] = Compound concentration 1000.0 nM
[47] = Compound concentration 100.0 nM

Chain of Serine/threonine-protein kinase 35 (Homo sapiens) (Q8TDR2 whole entry): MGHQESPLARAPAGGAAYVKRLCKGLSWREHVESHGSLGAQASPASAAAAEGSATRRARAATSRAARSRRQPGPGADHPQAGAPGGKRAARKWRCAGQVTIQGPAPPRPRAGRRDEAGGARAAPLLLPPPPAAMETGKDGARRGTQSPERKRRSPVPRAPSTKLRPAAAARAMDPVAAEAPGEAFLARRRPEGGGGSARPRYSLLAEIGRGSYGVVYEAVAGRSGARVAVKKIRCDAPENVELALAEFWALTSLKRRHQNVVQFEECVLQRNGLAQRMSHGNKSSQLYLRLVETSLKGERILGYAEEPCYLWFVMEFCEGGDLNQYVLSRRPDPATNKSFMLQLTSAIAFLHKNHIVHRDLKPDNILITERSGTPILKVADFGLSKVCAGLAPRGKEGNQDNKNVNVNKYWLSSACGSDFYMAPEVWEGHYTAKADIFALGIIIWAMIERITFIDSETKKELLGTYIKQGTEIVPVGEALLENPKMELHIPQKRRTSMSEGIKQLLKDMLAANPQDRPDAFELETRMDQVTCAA
Chain of Myosin light chain kinase family member 4 (Homo sapiens) (Q86YV6 whole entry): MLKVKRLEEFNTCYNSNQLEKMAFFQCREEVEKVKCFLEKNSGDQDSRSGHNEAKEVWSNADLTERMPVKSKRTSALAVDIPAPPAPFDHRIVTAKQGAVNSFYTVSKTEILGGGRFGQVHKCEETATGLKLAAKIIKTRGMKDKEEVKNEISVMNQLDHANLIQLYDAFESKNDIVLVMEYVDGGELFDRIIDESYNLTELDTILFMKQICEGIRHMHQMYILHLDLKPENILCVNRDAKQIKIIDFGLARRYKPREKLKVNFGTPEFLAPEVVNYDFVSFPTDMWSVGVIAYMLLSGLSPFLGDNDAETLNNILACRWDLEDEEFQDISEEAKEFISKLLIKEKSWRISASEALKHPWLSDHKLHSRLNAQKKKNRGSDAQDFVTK
Chain of Dual specificity mitogen-activated protein kinase kinase 7 (Homo sapiens) (O14733 whole entry): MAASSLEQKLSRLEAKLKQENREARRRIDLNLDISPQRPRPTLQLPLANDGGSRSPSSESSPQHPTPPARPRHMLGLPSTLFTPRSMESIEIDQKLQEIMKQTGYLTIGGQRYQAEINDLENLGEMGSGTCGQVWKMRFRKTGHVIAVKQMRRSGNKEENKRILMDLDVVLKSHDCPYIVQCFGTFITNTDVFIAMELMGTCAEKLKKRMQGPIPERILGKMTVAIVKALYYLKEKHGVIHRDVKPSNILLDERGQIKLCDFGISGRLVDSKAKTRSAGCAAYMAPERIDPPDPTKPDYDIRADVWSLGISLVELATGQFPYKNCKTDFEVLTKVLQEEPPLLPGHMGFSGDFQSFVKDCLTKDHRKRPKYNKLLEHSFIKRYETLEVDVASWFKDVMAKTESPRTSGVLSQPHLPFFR
Chain of Tyrosine-protein kinase ITK/TSK (Homo sapiens) (Q08881 whole entry): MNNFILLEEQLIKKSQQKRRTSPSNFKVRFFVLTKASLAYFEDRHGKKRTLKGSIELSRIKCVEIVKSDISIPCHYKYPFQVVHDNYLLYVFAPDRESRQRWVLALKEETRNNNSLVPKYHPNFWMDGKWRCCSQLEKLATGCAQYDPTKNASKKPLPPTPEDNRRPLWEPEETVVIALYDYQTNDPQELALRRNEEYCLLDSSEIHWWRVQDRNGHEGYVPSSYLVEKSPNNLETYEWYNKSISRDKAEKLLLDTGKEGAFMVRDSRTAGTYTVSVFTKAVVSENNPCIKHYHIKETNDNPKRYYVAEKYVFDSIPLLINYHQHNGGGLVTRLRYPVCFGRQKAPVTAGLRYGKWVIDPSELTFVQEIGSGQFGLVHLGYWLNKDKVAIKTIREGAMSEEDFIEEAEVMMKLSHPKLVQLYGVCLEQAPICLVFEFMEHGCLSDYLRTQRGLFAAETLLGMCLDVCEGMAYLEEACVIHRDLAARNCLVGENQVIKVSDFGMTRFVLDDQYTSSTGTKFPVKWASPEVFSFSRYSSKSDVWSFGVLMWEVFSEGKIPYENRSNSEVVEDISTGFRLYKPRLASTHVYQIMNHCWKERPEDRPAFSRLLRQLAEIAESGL
Chain of Dual specificity mitogen-activated protein kinase kinase 2 (Homo sapiens) (P36507 whole entry): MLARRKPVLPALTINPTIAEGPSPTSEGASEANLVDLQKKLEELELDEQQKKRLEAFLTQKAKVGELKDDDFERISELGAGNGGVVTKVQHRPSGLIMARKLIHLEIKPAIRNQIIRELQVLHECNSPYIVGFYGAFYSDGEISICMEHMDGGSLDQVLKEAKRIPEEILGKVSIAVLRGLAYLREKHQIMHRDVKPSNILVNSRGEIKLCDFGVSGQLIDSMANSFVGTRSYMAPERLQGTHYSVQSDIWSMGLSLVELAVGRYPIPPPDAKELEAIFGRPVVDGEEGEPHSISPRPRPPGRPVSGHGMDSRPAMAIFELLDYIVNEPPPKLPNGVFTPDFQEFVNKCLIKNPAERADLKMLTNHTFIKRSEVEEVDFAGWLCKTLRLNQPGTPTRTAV
Chain of TGF-beta receptor type-2 (Homo sapiens) (P37173 whole entry): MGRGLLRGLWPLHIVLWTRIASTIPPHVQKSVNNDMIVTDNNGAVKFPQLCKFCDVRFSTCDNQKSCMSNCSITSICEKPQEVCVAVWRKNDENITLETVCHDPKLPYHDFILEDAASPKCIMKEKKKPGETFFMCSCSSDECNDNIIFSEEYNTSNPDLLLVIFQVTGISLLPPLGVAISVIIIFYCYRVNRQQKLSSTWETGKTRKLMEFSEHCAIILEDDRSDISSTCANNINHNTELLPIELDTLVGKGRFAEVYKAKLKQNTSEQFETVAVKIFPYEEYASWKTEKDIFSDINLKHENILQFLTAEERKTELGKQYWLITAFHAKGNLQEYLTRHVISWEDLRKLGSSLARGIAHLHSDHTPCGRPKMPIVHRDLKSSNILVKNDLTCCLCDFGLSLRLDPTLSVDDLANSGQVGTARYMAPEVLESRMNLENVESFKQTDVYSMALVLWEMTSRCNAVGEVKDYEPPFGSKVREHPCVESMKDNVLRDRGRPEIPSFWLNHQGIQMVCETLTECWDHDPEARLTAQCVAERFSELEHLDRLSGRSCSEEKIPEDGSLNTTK
Chain of Serine/threonine-protein kinase D3 (Homo sapiens) (O94806 whole entry): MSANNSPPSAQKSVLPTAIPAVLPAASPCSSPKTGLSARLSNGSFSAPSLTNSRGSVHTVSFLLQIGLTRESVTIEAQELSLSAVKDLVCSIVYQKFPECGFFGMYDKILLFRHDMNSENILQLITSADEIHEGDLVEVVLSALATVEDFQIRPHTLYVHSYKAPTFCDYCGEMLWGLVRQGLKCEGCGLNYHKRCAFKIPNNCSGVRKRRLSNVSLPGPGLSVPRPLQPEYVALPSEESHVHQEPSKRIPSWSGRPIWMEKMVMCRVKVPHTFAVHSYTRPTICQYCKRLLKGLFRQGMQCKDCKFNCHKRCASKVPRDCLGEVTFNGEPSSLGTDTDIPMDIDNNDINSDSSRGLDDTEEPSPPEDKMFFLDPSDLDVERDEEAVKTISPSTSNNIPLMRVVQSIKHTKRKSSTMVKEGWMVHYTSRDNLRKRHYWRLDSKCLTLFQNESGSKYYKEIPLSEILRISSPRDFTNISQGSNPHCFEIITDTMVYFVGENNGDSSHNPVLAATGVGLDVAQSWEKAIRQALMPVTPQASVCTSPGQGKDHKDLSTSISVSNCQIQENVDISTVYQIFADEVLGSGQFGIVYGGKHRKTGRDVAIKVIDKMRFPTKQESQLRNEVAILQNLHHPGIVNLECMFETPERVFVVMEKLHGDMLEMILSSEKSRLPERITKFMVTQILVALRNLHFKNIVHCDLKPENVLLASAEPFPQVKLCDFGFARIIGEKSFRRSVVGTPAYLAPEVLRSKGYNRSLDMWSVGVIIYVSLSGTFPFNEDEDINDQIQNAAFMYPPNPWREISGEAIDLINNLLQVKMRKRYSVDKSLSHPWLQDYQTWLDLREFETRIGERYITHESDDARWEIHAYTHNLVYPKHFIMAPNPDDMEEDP
Chain of Ribosomal protein S6 kinase alpha-6 (Homo sapiens) (Q9UK32 whole entry): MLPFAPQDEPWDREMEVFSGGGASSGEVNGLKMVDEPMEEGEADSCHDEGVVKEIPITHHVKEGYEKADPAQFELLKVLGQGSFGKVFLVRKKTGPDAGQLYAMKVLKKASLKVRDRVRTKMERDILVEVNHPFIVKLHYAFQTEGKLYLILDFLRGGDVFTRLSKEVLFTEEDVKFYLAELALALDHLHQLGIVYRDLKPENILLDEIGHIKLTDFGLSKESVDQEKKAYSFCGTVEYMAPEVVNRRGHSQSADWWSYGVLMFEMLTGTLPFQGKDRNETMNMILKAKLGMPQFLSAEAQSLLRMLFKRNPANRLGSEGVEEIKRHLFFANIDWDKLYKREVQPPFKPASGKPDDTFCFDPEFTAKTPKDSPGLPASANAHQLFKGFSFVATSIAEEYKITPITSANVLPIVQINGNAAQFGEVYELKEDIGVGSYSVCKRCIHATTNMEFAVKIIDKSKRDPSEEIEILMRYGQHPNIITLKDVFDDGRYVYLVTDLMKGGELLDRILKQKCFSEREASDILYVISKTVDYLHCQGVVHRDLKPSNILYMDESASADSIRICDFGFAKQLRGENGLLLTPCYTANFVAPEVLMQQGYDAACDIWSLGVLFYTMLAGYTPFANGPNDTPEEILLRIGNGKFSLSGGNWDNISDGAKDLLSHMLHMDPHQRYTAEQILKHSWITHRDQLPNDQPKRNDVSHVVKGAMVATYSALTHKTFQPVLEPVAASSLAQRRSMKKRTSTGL
Chain of Serine/threonine-protein kinase Sgk2 (Homo sapiens) (Q9HBY8 whole entry): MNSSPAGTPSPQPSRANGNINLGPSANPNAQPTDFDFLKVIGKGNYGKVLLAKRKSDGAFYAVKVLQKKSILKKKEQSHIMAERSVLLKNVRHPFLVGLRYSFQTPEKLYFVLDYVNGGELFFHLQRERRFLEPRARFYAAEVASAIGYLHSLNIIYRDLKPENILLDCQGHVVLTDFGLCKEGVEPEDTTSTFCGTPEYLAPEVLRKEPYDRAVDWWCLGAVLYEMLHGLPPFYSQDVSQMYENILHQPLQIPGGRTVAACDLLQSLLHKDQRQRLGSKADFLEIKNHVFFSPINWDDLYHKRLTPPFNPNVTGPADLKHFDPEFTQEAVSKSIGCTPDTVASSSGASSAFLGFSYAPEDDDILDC

Structure (SMILES): CN(C)c1ncnc(-c2ccc3nc(Nc4cc(CN5CCN(C(=O)CC(F)(F)F)CC5)ccn4)[nH]c3c2)c1Cl [BAY-440]
- residual activity [1, 46]: 87%
- residual activity [2, 46]: 84%
- residual activity [3, 46]: 85%
- residual activity [4, 46]: 84%
- residual activity [5, 46]: 92%
- residual activity [6, 46]: 96%
- inhibition [7]: 12.6%
- residual activity [8, 46]: 55%
- residual activity [9, 46]: 81%
- residual activity [10, 46]: 100%
- residual activity [11, 46]: 100%
- residual activity [12, 46]: 100%
- residual activity [13, 46]: 33%
- residual activity [14, 46]: 91%
- residual activity [15, 46]: 100%
- residual activity [16, 46]: 1.8%
- residual activity [17, 46]: 83%
- residual activity [18, 46]: 74%
- residual activity [19, 46]: 47%
- inhibition [20]: 13.9%
- residual activity [21, 46]: 100%
- residual activity [22, 46]: 79%
- inhibition [23]: 35.1%
- residual activity [24, 46]: 100%
- residual activity [25, 46]: 100%
- residual activity [26, 46]: 100%
- residual activity [27, 46]: 72%
- residual activity [28, 46]: 85%
- residual activity [29, 46]: 100%
- residual activity [30, 46]: 100%
- residual activity [31, 46]: 38%
- residual activity [32, 46]: 68%
- residual activity [33, 46]: 88%
- residual activity [34, 46]: 43%
- inhibition [35]: 10.6%
- residual activity [36, 46]: 88%
- residual activity [37, 46]: 100%
- residual activity [38, 46]: 91%
- residual activity [39, 46]: 88%
- residual activity [40, 46]: 80%
- residual activity [41, 46]: 100%
- residual activity [42, 46]: 83%
- residual activity [43, 46]: 100%
- residual activity [44, 46]: 74%
- residual activity [45, 46]: 96%

Structure (SMILES): C[C@H](c1ccnc(Nc2nc3ccc(-c4cc(N(C)C)ncn4)cc3[nH]2)c1)N1CCN(C(=O)CC(F)(F)F)CC1 [BAY-985]
- residual activity [1, 47]: 100%
- residual activity [2, 47]: 100%
- residual activity [3, 47]: 98%
- residual activity [4, 47]: 100%
- residual activity [5, 47]: 100%
- residual activity [6, 47]: 100%
- inhibition [7]: 33.3%
- residual activity [8, 47]: 96%
- residual activity [9, 47]: 56%
- residual activity [10, 47]: 92%
- residual activity [11, 47]: 100%
- residual activity [12, 47]: 89%
- residual activity [13, 47]: 41%
- residual activity [14, 47]: 100%
- residual activity [15, 47]: 100%
- residual activity [16, 47]: 8.5%
- residual activity [17, 47]: 100%
- residual activity [18, 47]: 95%
- residual activity [19, 47]: 89%
- inhibition [20]: 6.47%
- residual activity [21, 47]: 69%
- residual activity [22, 47]: 100%
- inhibition [23]: 32.9%
- residual activity [24, 47]: 85%
- residual activity [25, 47]: 100%
- residual activity [26, 47]: 98%
- residual activity [27, 47]: 100%
- residual activity [28, 47]: 61%
- residual activity [29, 47]: 89%
- residual activity [30, 47]: 93%
- residual activity [31, 47]: 41%
- residual activity [32, 47]: 100%
- residual activity [33, 47]: 100%
- residual activity [34, 47]: 100%
- inhibition [35]: 5.66%
- residual activity [36, 47]: 93%
- residual activity [37, 47]: 100%
- residual activity [38, 47]: 51%
- residual activity [39, 47]: 100%
- residual activity [40, 47]: 100%
- residual activity [41, 47]: 92%
- residual activity [42, 47]: 100%
- residual activity [43, 47]: 93%
- residual activity [44, 47]: 100%
- residual activity [45, 47]: 31%
